Legend:
Meth-A cells = assay: Antitumor activity on a syngenic Meth-A tumor (tumor weight, i.v.); assay type: in vivo, male BALB/C mice; conditions: 7 consecutive days, day 17
Description: (1) Antitumor activity on a syngenic Meth-A tumor.
(§1) Ten male BALB/C mice in each group, weighing 25-30 g, were subcutaneously inoculated with 2×10^4 Meth-A cells. A solution of the compound in physiological saline was injected intravenously at the dose shown in Table 4 below once a day for consecutive 7 days starting with the next day of the tumor inoculation. Seventeen days after the tumor inoculation, mice were sacrificed, and tumors were weighed.
Growth inhibition was assessed, tumor weight in the treated mice divided by tumor weight in the control mice.

sarcoma 180 cells = assay: Antitumor activity on sarcoma 180 (tumor weight, i.v.); assay type: in vivo, male ICR mice; conditions: 10 consecutive days, day 17
Description: (2) antitumor activity on sarcoma 180
as §1, with “ICR” for “BALB/C”, “30-35” for “25-30”, “5×10^5 sarcoma 180” for “2×10^4 Meth-A”, “5” for “4”, “for 10” for “for”, “consecutive” for “consecutive 7”

[1] = test system: transplantable fibrosarcoma induced by 3-methylcholanthrene; assay: Antitumor activity on a 3-methylcholanthrene-induced transplantable tumor (tumor weight, i.v.); assay type: in vivo, male C57BL/6 mice; conditions: every other day 5 times, day 21
Description: (3) Antitumor activity on a 3-methylcholanthrene-induced transplantable tumor.
Ten male C57BL/6 mice in each group weighing 20-25 g were subcutaneously inoculated with 5×10^4 or 1×10^5 cells of transplantable fibrosarcoma, which was induced in C57BL/6 strain by 3-methylcholanthrene and maintained syngenetically in ascites form. A solution of the compound in physiological saline was injected intravenously at the dose shown in Table 6 below every other day 5 times, starting with the next day of the tumor inoculation. Twenty-one days after the tumor inoculation, mice were sacrificed and tumors were weighed.

[2] = test system: spleen hemolytic plaque forming cells; assay: Effect on humoral response (hemolytic plaque forming cells, sheep red blood cells, i.p.); assay type: in vivo, male BALB/C mice; conditions: for Increase (hemolytic plaque forming cells vs saline control) / Cell count/spleen (hemolytic plaque forming cells): day 0 to 4; for Cell count/spleen (hemolytic plaque forming cells): counted day 5
Description: (4) Effect on humoral response
Ten male BALB/C mice in each group, weighing 25-30 g, were intravenously injected with 1×10^7 sheep red blood cells on day 0. A solution of the compound in physiological saline was injected intraperitoneally at the dose shown in Table 7 below from day 0 to day 4.
On day 5, spleen hemolytic plaque forming cells were counted by the technique of Jerne et al (Science, 140, 405, 1963) modified by Cunningham et al (Immunology, 14, 599, 1968).

[3] = test system: delayed hypersensitivity response; assay: Effect on a cell-mediated response (picryl chloride delayed hypersensitivity, ear swelling, oral); assay type: in vivo, male BALB/C mice; conditions: for Increase relative to control group (ear swelling) / Increase of swelling (× 10^-4): 7 days; for Increase of swelling (× 10^-4): 24 hours after challenge; for effect on the delayed hypersensitivity response (in words): oral, Table 8 doses
Description: (5) Effect on a cell-mediated response
Ten male BALB/C mice in each group, weighing in 20-25 g, were used. Mice were immunized by applying the skin of the clipped abdomen with 0.1 ml of 7% picryl chloride in absolute alcohol on day 0, and challenge was with 0.02 ml of 1% picryl chloride in olive oil applied to the ear on day 7. The ear was measured again 24 hours later by a dial thickness gauge. A solution of the compound in water was orally administered at the dose shown in Table 8 below daily for seven consecutive days starting with day 1.

[4] = Acute toxicity test (up-down method, i.v.); conditions: mouse, in vivo, iv, male ddy mice
Description: Male ddy mice weighing 20 g were used. A solution of the compound in physiological saline was injected intravenously. The dose lethal to 50% of mice was determined by the up-down method.

[5] = 3 mg/kg/day i.v., cell count 1 × 10^5

C[S+](C)CC1CCCO1 (centres unmarked) [Compound 1, methylene(tetrahydro-2-furanyl)dimethylsulfonium p-toluenesulfonate]
Inhibition (Meth-A tumor growth) (Meth-A cells; 0.8 mg/kg/day i.v.): 39.9% | Inhibition (Meth-A tumor growth) (Meth-A cells; 4.0 mg/kg/day i.v.): 63.9% | Inhibition (sarcoma 180 growth) (sarcoma 180 cells; 0.8 mg/kg/day i.v.): 66.4% | Inhibition (fibrosarcoma growth) ([1]; 10 mg/kg/day i.v., cell count 5 × 10^4): 71.5% | Increase (hemolytic plaque forming cells vs saline control) ([2]; 2.5 mg/kg/day i.p.): 52.6% | Cell count/spleen (hemolytic plaque forming cells) ([2]; 2.5 mg/kg/day i.p.): 322 ± 75.2 | Increase (hemolytic plaque forming cells vs saline control) ([2]; 10 mg/kg/day i.p.): 35.1% | Cell count/spleen (hemolytic plaque forming cells) ([2]; 10 mg/kg/day i.p.): 285 ± 113.5 | Increase (hemolytic plaque forming cells vs saline control) ([2]; 40 mg/kg/day i.p.): 85.8% | Cell count/spleen (hemolytic plaque forming cells) ([2]; 40 mg/kg/day i.p.): 392 ± 91.4 | increase in the number of hemolytic plaque forming cells (in words) ([2]; at the doses of 2.5 mg/kg and 40 mg/kg, i.p.): significant increases | Increase relative to control group (ear swelling) ([3]; 20 mg/kg/day oral): -3.4% | Increase of swelling (× 10^-4) ([3]; 20 mg/kg/day oral): 34.2 ± 6.0 × 10^-4 | Increase relative to control group (ear swelling) ([3]; 100 mg/kg/day oral): 43.5% | Increase of swelling (× 10^-4) ([3]; 100 mg/kg/day oral): 50.8 ± 13.4 × 10^-4 | Increase relative to control group (ear swelling) ([3]; 500 mg/kg/day oral): 11.0% | Increase of swelling (× 10^-4) ([3]; 500 mg/kg/day oral): 39.3 ± 9.8 × 10^-4 | effect on the delayed hypersensitivity response (in words) [3]: augment the delayed hypersensitivity response | LD50 [4]: 130 mg/kg

CCCC[S+](C)CC1CCCO1 (centres unmarked) [Compound 12]
Inhibition (fibrosarcoma growth) [1, 5]: 44.3% | LD50 [4]: 90 mg/kg

C[S+](CCOC(=O)c1ccccc1)CC1CCCO1 (centres unmarked) [Compound 27]
Inhibition (sarcoma 180 growth) (sarcoma 180 cells; 0.4 mg/kg/day i.v.): 75.7% | LD50 [4]: 94 mg/kg

C[S+](C)CCC1CCCO1 (centres unmarked) [Compound 29, ethylene(tetrahydro-2-furanyl)dimethylsulfonium p-toluenesulfonate]
Inhibition (Meth-A tumor growth) (Meth-A cells; 0.4 mg/kg/day i.v.): 60.7% | Inhibition (Meth-A tumor growth) (Meth-A cells; 2.0 mg/kg/day i.v.): 69.8% | Inhibition (Meth-A tumor growth) (Meth-A cells; 10.0 mg/kg/day i.v.): 39.6% | Inhibition (fibrosarcoma growth) [1, 5]: 66.7% | Increase relative to control group (ear swelling) ([3]; 20 mg/kg/day oral): 26.0% | Increase of swelling (× 10^-4) ([3]; 20 mg/kg/day oral): 44.8 ± 9.5 × 10^-4 | Increase relative to control group (ear swelling) ([3]; 100 mg/kg/day oral): 35.3% | Increase of swelling (× 10^-4) ([3]; 100 mg/kg/day oral): 47.9 ± 13.2 × 10^-4 | Increase relative to control group (ear swelling) ([3]; 500 mg/kg/day oral): -11.6% | Increase of swelling (× 10^-4) ([3]; 500 mg/kg/day oral): 31.3 ± 13.5 × 10^-4 | effect on the delayed hypersensitivity response (in words) [3]: augment the delayed hypersensitivity response | LD50 [4]: 131 mg/kg

C[S+](C)CCCC1CCCO1 (centres unmarked) [Compound 46]
Inhibition (Meth-A tumor growth) (Meth-A cells; 0.2 mg/kg/day i.v.): 58.1% | LD50 [4]: 13.2 mg/kg

C[S+](C)CC1CCCCO1 (centres unmarked) [Compound 50, methylene(tetrahydro-2-pyranyl)dimethylsulfonium p-toluenesulfonate]
Inhibition (sarcoma 180 growth) (sarcoma 180 cells; 3.0 mg/kg/day i.v.): 73.3% | LD50 [4]: 135 mg/kg

C[S+](C)CCC1CCCCO1 (centres unmarked) [Compound 58]
Inhibition (Meth-A tumor growth) (Meth-A cells; 2.0 mg/kg/day i.v.): 49.2% | LD50 [4]: 80 mg/kg

Reference: patent publication US4340543A, “Sulfonium compounds” (Taiho Pharmaceutical Company Limited, priority 1980, dated 1982)
